# Experimental data as given in paper PMC9668969 (Nature Communications, 2022).
# “And” between values parts separate entries of the source, which are not always exact repeats. Equal entries are not always repeated.
# Tests used:
# [1] = test system: ELIC; conditions: cited from earlier work
# [2] = test system: WT ELIC; experiment: Asymmetric liposome stopped-flow Tl+ flux assay (no exchange vs exchange, 25 mol% outer leaflet POPG); format: biochemical, Erwinia chrysanthemi; set-up: key to Tl+ flux quenching rate, Avg. / Tl+ flux quenching rate: Tl+ influx rate kt at 2 ms from stretched-exponential fit (Eq. 2b); conditions: for Tl+ flux quenching rate, Avg. / Tl+ flux quenching rate: No-exchange: WT in 3:1 PC:PE with just beta-CD, 10 mM propylamine; for Tl+ flux quenching rate: single experiments
# Description: The fluorescence sequential-mixing stopped-flow liposomal flux measurements were carried using an SX20 stopped-flow spectrofluorometer (Applied Photophysics) and Pro-Data SX software[13],[30]. 7.5 mg of the respective lipid mixture (POPC, 1:1 POPC: POPE, 1:1 POPC:POPG, 3:1 POPC:POPE, 3:1 POPC:POPG, 2:1:1 POPC:POPE:POPG) was dried in a glass vial to a thin film under a constant stream of N2. The lipids were then further dried under vacuum in a desiccator overnight. The following day the lipids were hydrated in 500 µl of reconstitution buffer (100 mM NaNO3, 10 mM HEPES, pH 7) (Buffer R), 250 µl of 75 mM 8-Aminonaphthalene-1,3,6-Trisulfonic Acid (ANTS, ThermoFisher Scientific) in buffer R, and doped with ~18 mg of CHAPS (Anatrace). The mixture was vortexed and then sonicated with heat until completely solubilized. Following the sonication, the solution was brought to RT then 3.5 µl of 6.7 mg/ml ELIC in Buffer A with 0.02% DDM was added (3 µg per mg of lipid). This combined solution was incubated at RT for 30 min, followed by the addition of 1 ml of 1:1 v/v SM-2 BioBeads in Buffer R and an additional 250 µl of 75 mM ANTS in Buffer R. This mixture was incubated at RT for 2.5 hr with gentle mixing. The liposome suspension was then extruded with an Avanti mini-extruder and 0.1 µm membrane (30×). The extruded liposomes were stored at 13 °C overnight with gentle rotation. The next day, the liposomes were diluted to 2.5 mL using assay buffer (140 mM NaNO3, 10 mM HEPES, pH 7) (Stopped-flow Buffer A), loaded into a PD-10 desalting column (Cytiva), eluted with 3 mL of Stopped-flow Buffer A and subsequently diluted 5-fold with Stopped-flow Buffer A.
# Using propylamine as the agonist, the assay and analysis was carried out as previously described[13],[30]. ELIC-containing liposomes were first mixed 1:1 with Buffer A containing 2× the concentration of propylamine. After a variable delay of 10 ms to 25 s, the sample was then mixed 1:1 with a quenching buffer (90 mM NaNO3, 50 mM TlNO3, 10 mM HEPES, pH 7), and ANTS fluorescence (ex. 360 nm, fluorescence above 420 nm) was recorded for 1 s. For each delay time, 5 repeat measurements were obtained. The data were collected using Applied Photophysics Pro-Data SX software. The fluorescence quenching traces were fit to a stretched exponential (Eq. 2a) and the rate of Tl^+ influx was determined at 2 ms (Eq. 2b).2a Ft=F∞+F0−F∞⋅e^−t/τ^β 2b kt=β/τ⋅2ms/τ^(β−1) where Ft, F∞, F0 are the fluorescence at time t, final fluorescence and initial fluorescence. τ is the time constant, β the stretched exponential factor, and kt the calculated rate of Tl^+ influx at 2 ms. The time course of desensitization was also fit to a double exponential and a weighted time constant was calculated as was done for the patch-clamp data using Origin 2019b. All replicates were taken from independent samples.
# Acceptor liposomes were prepared as described in the Stopped-flow fluorescence recordings section until completion of the extrusion step. The preparation was scaled up 2x to produce samples for the no-exchange and exchange conditions. After extrusion and storage of the liposomes overnight at 13 °C, the double liposome preparation was split into two equal volume aliquots of ~1.5 ml. Using the excel spreadsheet provided by Markones et al.[44], donor POPG and methyl-β-cyclodextrin (MβCD, Sigma) concentrations and volumes were calculated to produce an outer leaflet POPG content of 25 mol% in the liposomes. The calculations assumed a ~6.66 mM lipid concentration and 1.5 mL volume of the acceptor liposome solution[44]. A MβCD-POPG (50% saturation of MβCD by POPG) solution was formed by combining 224 µL 7.5 mM POPG in Stopped-flow Buffer A, 650 µl 300 mM MβCD in Stopped-flow Buffer A, and 126 µL Stopped-flow Buffer A, which was then mixed at 50 °C and 1000 RPM for 20 min using an Eppendorf thermomixer. […]
molecule,measurement,setting,value
cardiolipin,effect on ELIC,[1],positively modulates ELIC
"CC/C=C\C/C=C\C/C=C\C/C=C\C/C=C\C/C=C\CCC(=O)O [DHA, docosahexaenoic acid]",effect on ELIC agonist response,[1],decreases peak agonist response and increases desensitization
methyl-β-cyclodextrin,"Tl+ flux quenching rate, Avg.",[2]; delay 0.01 s,12.9647
same,"Tl+ flux quenching rate, Avg.",[2]; delay 0.025 s,13.7625
same,"Tl+ flux quenching rate, Avg.",[2]; delay 0.05 s,18.86
same,"Tl+ flux quenching rate, Avg.",[2]; delay 0.1 s,31.5581
same,"Tl+ flux quenching rate, Avg.",[2]; delay 0.25 s,29.5756
same,"Tl+ flux quenching rate, Avg.",[2]; delay 0.5 s,31.8845
same,"Tl+ flux quenching rate, Avg.",[2]; delay 1 s,34.9406
same,"Tl+ flux quenching rate, Avg.",[2]; delay 2.5 s,21.2322
same,"Tl+ flux quenching rate, Avg.",[2]; delay 5 s,10.788
same,"Tl+ flux quenching rate, Avg.",[2]; delay 10 s,2.374
same,"Tl+ flux quenching rate, Avg.",[2]; delay 25 s,1.305
same,effect on ELIC responses,"[2]; methyl-β-cyclodextrin alone, 3:1 POPC:POPE liposomes",did not alter ELIC responses
same,Tl+ flux quenching rate,[2]; delay 0.025 s,9.097 and 18.0228 and 11.9906 and 15.9401
same,Tl+ flux quenching rate,[2]; delay 0.25 s,35.4461 and 38.8846 and 20.2406 and 23.7309
same,Tl+ flux quenching rate,[2]; delay 2.5 s,25.1548 and 26.3221 and 15.7795 and 17.6721
same,Tl+ flux quenching rate,[2]; delay 5 s,10.4577 and 9.241 and 15.1687 and 8.284
